Test results: patent US20080071190A1, “Timing of Ovulation Based on Vaginal Ph” (priority 2004, published 2008)
Marks after values point to notes of the source that are not given here.

Key:
[1] = system: hECE cells (Human Ectocervical-Vaginal Epithelial Cells); assay: Determinations of extracellular pH (pHo) in luminal and contra-luminal solutions of hECE cells cultured on filters; assay type: cell-based; details: for effect of co-treatment on estrogen-induced decrease in luminal pHo: hECE cells in steroid-free medium + 10 nM 17β-estradiol; for effect of co-treatment on estrogen-induced decrease in luminal pHo / effect on contra-luminal pHo: tamoxifen 10 μM; for effect of co-treatment on estrogen-induced decrease in luminal pHo / effect on luminal pHo, alone / effect on contra-luminal pHo: ICI-182780 10 μM; for effect of co-treatment on estrogen-induced decrease in luminal pHo / effect on luminal pHo, alone: progesterone 1 μM; for effect on luminal pHo, alone: without 17β-estradiol; for effect on contra-luminal pHo: progesterone 1 μM (not shown); for effect on estrogen-induced acidification of the luminal pHo: 10 nM 17β-estradiol, 30 min pre-treatment, bafilomycin A1 1 μM, ouabain 1 μM (contra-luminal), omeprazol 100 μM, FIG. 10; for effect on luminal pHo (specificity of estrogen effect): hormone at 10 nM, FIG. 8A
Description: Referring to FIG. 4A, hECE cells or Human Endocervical Cells were plated on Anocell filters (Anocel™-10, Oxon, UK, obtained through Sigma Chemicals, St. Louis, Mo.), which are ceramic-base filters, pore size of 0.02 μm width, 50 μm depth, and surface area of 0.6 cm^2. Filters 300 and 302 were coated with 4 μg/cm^2 collagen type IV and incubated at 37° C. overnight. The remaining collagen solution was aspirated and the filter was dried at 37° C. Before plating, filters 300 were rinsed 3 times with Hanks' Balanced Salt Solution. Cells were plated either on the upper surface 302 of one filter 300 (for determinations of luminal pHo) or on the bottom surface 304 of the other filter 300 (for determinations of the contra-luminal pHo) at 3·10^5 cells/cm^2. By plating at this relatively high density the cultures became confluent within 12 hours after plating.
Plates containing the filters were placed in a tissue culture incubator (37° C.), and pHo changes in the luminal and contra-luminal solutions were determined using AMANI-1000 microcombination pH electrodes 306 (Harvard Apparatus, Holliston, Mass., obtained through Genomics Solutions, Ann Harbor, Mich.). The AMANI-1000 pH sensor (stored in pH 7.0) is based on metal-metal oxide pH measurements and the pH sensitive layer is immobilized on plastic. The reference electrode employs an Ag/AgCl in 3.4 M KCl reference electrode, and the reference electrode junction is leak-free ensuring no leaks of KCl out of the reference electrode. The design of the pH electrodes 306 enabled their use for the purpose of the present experiments: tip diameter of 1 mm, depth of immersion 1 mm, and response time of less than 5 sec.
Electrodes 306 attached to a stand were held stable with the tip immersed in the solution within the upper compartment of the filter to a depth of about 2 mm avoiding direct contact between the electrode tip and the cultured cells. The electrodes were connected directly to a pH meter 310 (e.g., Accumet pH meter 910) (Fisher Scientific, Suwanee Ga.). After stabilization, the luminal and contraluminal solutions were gently aspirated using glass pipette, and replaced with fresh warmed (37° C.) Basic Salt Solution containing (in mM) NaCl (140), KCl (5), MgCl2 (1), CaCl2 (1), glucose (10), and 0.1% bovine serum albumin, pH 7.4. The volumes in the luminal and contraluminal compartments were 150 μl and 500 μl, respectively. Determinations of changes in pHo were made at time 0, and at 5 min intervals thereafter for up to 30 min.
To remove intracellular estrogens cells were grown in steroid-free medium as described. This procedure involved shifting cells on filters for three days prior to pHo assays to a medium composed of phenol-red-deficient (DMEM)/Ham's F12 or (Sigma Chemicals, St. Louis, Mo.) containing 8% heat inactivated fetal bovine serum that was previously treated with charcoal to remove steroids. Preparation of charcoal-treated serum was described; briefly, dextran-coated charcoal (Sigma Chemicals, St. Louis, Mo.) was dissolved at 8% in 0.15 M NaCl, autoclaved, mixed by stirring, spun and the pellet was resuspended as 1 gm/1.25 ml in H2O. Fetal bovine serum (Hyclone, Logan, Utah) was mixed with the activated charcoal-dextran at 20:1 (Vol:Vol) and incubated for 45 min at 55° C. At the completion of incubation the mixture was spun twice at 800 g for 20 min and the supernatant (serum) was decanted and collected. For experiments, cells were shifted to steroid-free medium for 3 days; alternatively, cells were shifted to the steroid-free medium for 24 hrs and treated with 17β-estradiol for two additional days.

[2] = system: hECE cells; assay: Cell-vitality staining (MTT assay); assay type: cell-based, human; details: for hECE cell vitality (MTT staining normalized to OD570 of control unperturbed cells), Baseline / hECE cell vitality (MTT staining normalized to OD570 of control unperturbed cells), 30 min pHo: means ±SD; for hECE cell vitality (MTT staining normalized to OD570 of control unperturbed cells), 30 min pHo: after 30 min pHo measurement
Description: Cell-vitality staining was done using the 3-[4,5-dimethylthiazol-2-yl]-2,5-diphenyl tetrazolium bromide (MTT) assay. MTT serves as a substrate for mitochondrial dehydrogenases, and only viable functional mitochondria are capable of cleaving MTT to generate the colored product formazan. MTT solution was prepared by dissolving MTT at a concentration of 5 mg/ml in phosphate-buffered saline (PBS) composed of (mM) NaCl (137), KCl (2.68), Na2HPO4 (10), KH2PO4 (1.76), pH 7.4, and filtering the solution through Millipore filter. Following treatments/assays, cells on filters were washed with fresh and warm (37° C.) PBS and incubated for 60 min at 37° C. in MTT solution. At the completion of incubation, cells were washed with PBS, and solubilized in isopropanol containing 0.1 M HCl plus 1% Triton X-100. Lysates were mixed by pipetting to dissolve the reduced MTT crystals (during which time the colorless solution turned purple) and were spinned at 10,000 g for 5 min. The solubilized formazan was measured by determining absorption at 570 nm. Background absorbance at 690 nm was subtracted for each sample, and values were normalized to OD570 (optic density) of control unperturbed cells.

[3] = hECE cells in steroid-free medium
[4] = Steroid-Free Medium + 10 nM 17β-Estradiol + substance at the concentration given
[5] = Steroid-Free Medium + substance, 3 to 4 repeats
[6] = hECE cells, steroid-free medium + estradiol, 1 μM for 30 min added to the luminal solution

SMILES | effect of co-treatment on estrogen-induced decrease in luminal pHo [1] | effect on contra-luminal pHo ([1]; hECE cells) | hECE cell vitality (MTT staining normalized to OD570 of control unperturbed cells), Baseline [2, 4] | hECE cell vitality (MTT staining normalized to OD570 of control unperturbed cells), 30 min pHo [2, 4] | hECE cell vitality (MTT staining normalized to OD570 of control unperturbed cells), Baseline [2, 5] | hECE cell vitality (MTT staining normalized to OD570 of control unperturbed cells), 30 min pHo [2, 5] | effect on estrogen-induced acidification of the luminal pHo ([1]; hECE cells) | further results
CC(=O)[C@H]1CC[C@H]2[C@@H]3CCC4=CC(=O)CC[C@]4(C)[C@H]3CC[C@]12C [progesterone] | no significant effect | Neither tamoxifen ICI-182780 or progesterone had any appreciable effect | 91 ± 6% | 95 ± 4% | 95 ± 5% | 95 ± 4% | – | effect on luminal pHo, alone [1, 3]: no effect
CO/C1=C\C(C)=C\[C@@H](C)[C@@H](O)[C@@H](C)C/C(C)=C/C=C/[C@H](OC)[C@@H]([C@@H](C)[C@@H](O)[C@H](C)[C@@]2(O)C[C@@H](O)[C@H](C)[C@@H](C(C)C)O2)OC1=O [bafilomycin A1] | – | – | 93 ± 7% | 92 ± 5% | 94 ± 3% | 95 ± 4% | blocked | effect on the contra-luminal or luminal pHo ([1]; hECE cells, steroid-free medium + estradiol, 1 μM for 30 min added to the contra-luminal solution): no effect; effect on luminal pHo [1, 6]: significantly blocked the estrogen-decrease in luminal pHo; effect on the contra-luminal pHo [1, 6]: little effect
CC/C(=C(\c1ccccc1)c1ccc(OCCN(C)C)cc1)c1ccccc1 [tamoxifen] | no significant effect | Neither tamoxifen ICI-182780 or progesterone had any appreciable effect | 95 ± 3% | 96 ± 4% | 93 ± 4% | 95 ± 4% | – | luminal pHo ([1]; hECE cells in steroid-free medium, tamoxifen 10 μM alone, 24 hrs, decreased from 7.24±0.02, p<0.01): 7.15±0.02
C[C@]12CC[C@H]3[C@@H](CCC4=CC(=O)CC[C@@]43C)[C@@H]1CC[C@@H]2O [testosterone] | – | – | – | – | – | – | – | effect on luminal pHo (specificity of estrogen effect) [1, 3]: no effect
O=C(O)CN(CCOCCOCCN(CC(=O)O)CC(=O)O)CC(=O)O [EGTA] | – | – | – | – | – | – | – | effect on contra-luminal solution ([1]; hECE cells, 1.2 mM EGTA plus 1.2 mM CdCl2 in luminal and contra-luminal solutions): acidification of the contra-luminal solution; effect on luminal acidification ([1]; hECE cells, 1.2 mM EGTA plus 1.2 mM CdCl2 in luminal and contra-luminal solutions (extracellular calcium <0.1 mM)): blocked the luminal acidification; luminal pHo and contra-luminal pHo ([1]; hECE cells, following treatment with 1.2 mM EGTA (plus 1.2 mM CdCl2)): ~7.2
C[C@@H]1O[C@@H](O[C@H]2C[C@@H](O)[C@]3(CO)[C@H]4[C@H](O)C[C@]5(C)[C@@H](C6=CC(=O)OC6)CC[C@]5(O)[C@@H]4CC[C@]3(O)C2)[C@H](O)[C@H](O)[C@H]1O [ouabain] | – | – | 62 ± 4^a,b % | 74 ± 9^b % | 71 ± 8^a,b % | 69 ± 9^b % | attenuated mildly estradiol effect | effect on luminal pHo in cells grown in steroid-free medium ([1]; hECE cells, no estradiol, ouabain 1 μM, 30 min, added to contra-luminal solution): mild alkalinization of luminal pHo; effect on MTT cleavage (cell viability) ([2]; hECE cells, treatments of Table 1): decreased MTT incorporation and staining
COc1ccc2[nH]c([S+]([O-])Cc3ncc(C)c(OC)c3C)nc2c1 (centres unmarked) [omeprazol] | – | – | 91 ± 6% | 95 ± 4% | 92 ± 5% | 95 ± 4% | no effect | –
CC/C(=C(/CC)c1ccc(O)cc1)c1ccc(O)cc1 [diethylstilbestrol] | – | – | – | – | – | – | – | effect on luminal pHo (specificity of estrogen effect) [1, 3]: could mimic 17β-estradiol decrease in luminal pHo
[Cl][Cd][Cl] [CdCl2] | – | – | 95 ± 2% | 95 ± 3% | 94 ± 2% | 95 ± 9% | – | –
C[C@]12CC[C@@H]3c4ccc(O)cc4C[C@@H](CCCCCCCCC[S+]([O-])CCCC(F)(F)C(F)(F)F)[C@H]3[C@@H]1CC[C@@H]2O (some centres unmarked) [ICI-182780] | blocked | Neither tamoxifen ICI-182780 or progesterone had any appreciable effect | 89 ± 9% | 93 ± 6% | 95 ± 8% | 95 ± 3% | – | effect on luminal pHo, alone [1, 3]: no effect
